# Reference: patent US4605641A, “Synthetic vasoactive intestinal peptide analogs” (Hoffmann-La Roche Inc., priority 1984, dated 1986)
# Peptide text beside a SMILES is read from it.
# Tested on: guinea pig trachea smooth muscle
# Assay: Bronchodilator (relaxant) effect on isolated guinea pig tracheal rings
# Format: cell-based
# Settings: for Relative Potency: guinea pig trachea, relative to VIP = 100%; for EC50: guinea pig tracheal rings, relaxation as % of maximum response to VIP 10^-6 M, three tissues pooled, linear regression, read-out: EC50 (M), agonist activity, bronchodilator effect
# Text: The bronchodilatory effect of VIP analogs was studied in a model utilizing guinea pig trachea. Wasserman, M. A. et al. "Comparative In Vitro Tracheal Relaxant Effects of Porcine and Hen VIP" in Vasoactive Intestinal Peptide ed. Said, S.I., Raven Press (New York, 1982).
# All tissues were taken from male albino guinea pigs weighing 400-600 g, anesthetized with urethane 2 g/kg i.p. After exsanguination the trachea was removed and divided into four ring segments (3 mm length). Each ring was suspended by two 30 guage stainless steel wires in a 10 ml jacket tissue bath and attached via 4-0 silk thread to a Grass force displacement transducer (model FT03C, Grass Instrument Co., Quincy, MA), for isometric recording of tension. The smooth muscle was bathed in modified Krebs solution of the following composition: NaCl, 120 mM; KCl, 4.7 mM; CaCl2, 2.5 mM; MgSO4.7H2 O; 1.2 mM; NaHCO3, 25 mM; KH2 PO4 monobasic, 1.2 mM; and dextrose, 10 mM. Tissue baths were maintained at 37.5° C. and constantly bubbled with 95% O2 and 5% CO2. Responses were recorded on an 8 channel and 4 channel Hewlett-Packard (model 7702B and 7754A, respectively) recorder (Hewlett Packard, Paramus, NJ). Tracheal rings were placed under a resting tension of 1.5 g which was determined to be at or near optimal in preliminary experiments. Frequent readjustments of tension were required during the 60 min. stabilization period which followed. Tissues were rinsed at 15 min. intervals.
# Cumulative concentration response curves were obtained for each tissue by successive […] in the bath concentration of VIP or potential VIP agonists according to the method of VanRossum J. M., Arch. Int Pharmacodyn, 143, 299-330 (1963). Only one cummulative dose response curve was obtained on a single piece of tissue. To minimize variability between tissues, relaxant responses are expressed as a percentage of the maximum response obtainable to VIP (10^-6 M=100%) added at the end of the concentration response curve. Responses obtained from three tissues were pooled and EC50 values were determined by linear regression.
Structure (SMILES),EC50 [M],Relative Potency [%]
"CCCC[C@H](NC(=O)[C@H](CCC(N)=O)NC(=O)[C@H](CCCCN)NC(=O)[C@H](CCCNC(=N)N)NC(=O)[C@H](Cc1ccccc1)NC(=O)[C@H](CCCNC(=N)N)NC(=O)[C@H](CO)NC(=O)[C@H](Cc1ccc(O)cc1)NC(=O)[C@H](CC(N)=O)NC(=O)[C@H](CC(=O)O)NC(=O)[C@@H](NC(=O)[C@H](Cc1ccccc1)NC(=O)[C@@H](NC(=O)[C@H](C)NC(=O)[C@H](CC(=O)O)NC(=O)[C@H](CO)NC(=O)[C@H](Cc1c[nH]cn1)NC(C)=O)C(C)C)[C@@H](C)O)C(=O)N[C@@H](C)C(=O)N[C@H](C(=O)N[C@@H](CCCCN)C(=O)N[C@@H](CCCCN)C(=O)N[C@@H](Cc1ccc(O)cc1)C(=O)N[C@@H](CC(C)C)C(=O)N[C@@H](CC(N)=O)C(=O)N[C@@H](CO)C(=O)N[C@H](C(=O)N[C@@H](CC(C)C)C(=O)N[C@@H](CC(N)=O)C(N)=O)[C@@H](C)CC)C(C)C [Ac--(Ser^11, Phe^13, Nle^17)--VIP, Ac-(Ser^11, Phe^13, Nle^17)VIP] (HELM PEPTIDE1{[ac].H.S.D.A.V.F.T.D.N.Y.S.R.F.R.K.Q.[Nle].A.V.K.K.Y.L.N.S.I.L.N.[am]}$$$$V2.0)",2.2e-08,45
"CCCC[C@H](NC(=O)[C@H](CCC(N)=O)NC(=O)[C@H](CCCCN)NC(=O)[C@H](CCCCN)NC(=O)[C@H](CC(C)C)NC(=O)[C@H](CCCNC(=N)N)NC(=O)[C@@H](NC(=O)[C@H](Cc1ccc(O)cc1)NC(=O)[C@H](CC(N)=O)NC(=O)[C@H](CC(=O)O)NC(=O)[C@@H](NC(=O)[C@H](Cc1ccccc1)NC(=O)[C@@H](NC(=O)[C@H](C)NC(=O)[C@H](CC(=O)O)NC(=O)[C@H](CO)NC(=O)[C@@H](N)Cc1c[nH]cn1)C(C)C)[C@@H](C)O)[C@@H](C)O)C(=O)N[C@@H](C)C(=O)N[C@H](C(=O)N[C@@H](CCCCN)C(=O)N[C@@H](CCCCN)C(=O)N[C@@H](Cc1ccc(O)cc1)C(=O)N[C@@H](CC(C)C)C(=O)N[C@@H](CC(N)=O)C(=O)N[C@@H](CO)C(=O)N[C@H](C(=O)N[C@@H](CC(C)C)C(=O)N[C@@H](CC(N)=O)C(N)=O)[C@@H](C)CC)C(C)C [(Lys^14, Nle^17)--VIP, (Lys^14, Nle^17)VIP] (HELM PEPTIDE1{H.S.D.A.V.F.T.D.N.Y.T.R.L.K.K.Q.[Nle].A.V.K.K.Y.L.N.S.I.L.N.[am]}$$$$V2.0)",5.8e-09,172
"CCCC[C@H](NC(=O)[C@H](CCC(N)=O)NC(=O)[C@H](CCCCN)NC(=O)[C@H](CCCNC(=N)N)NC(=O)[C@H](CC(C)C)NC(=O)[C@H](CCCNC(=N)N)NC(=O)[C@@H](NC(=O)[C@H](Cc1ccc(O)cc1)NC(=O)[C@H](CC(N)=O)NC(=O)[C@H](CC(=O)O)NC(=O)[C@@H](NC(=O)[C@H](Cc1ccccc1)NC(=O)[C@@H](NC(=O)[C@H](C)NC(=O)[C@H](CC(=O)O)NC(=O)[C@H](CO)NC(=O)[C@@H](N)Cc1c[nH]cn1)C(C)C)[C@@H](C)O)[C@@H](C)O)C(=O)N[C@@H](C)C(=O)N[C@H](C(=O)N[C@@H](CCCCN)C(=O)N[C@@H](CCCCN)C(=O)N[C@@H](Cc1ccc(O)cc1)C(=O)N[C@@H](CC(C)C)C(=O)N[C@H](C(=O)N[C@@H](CO)C(=O)N[C@H](C(=O)N[C@@H](CC(C)C)C(=O)N[C@@H](CC(N)=O)C(N)=O)[C@@H](C)CC)[C@@H](C)O)C(C)C [(Nle^17, Thr^24)--VIP, (Nle^17, Thr^24)VIP] (HELM PEPTIDE1{H.S.D.A.V.F.T.D.N.Y.T.R.L.R.K.Q.[Nle].A.V.K.K.Y.L.T.S.I.L.N.[am]}$$$$V2.0)",8e-09,125
"CCCC[C@H](NC(=O)[C@H](CCC(N)=O)NC(=O)[C@H](CCCCN)NC(=O)[C@H](CCCNC(=N)N)NC(=O)[C@H](CC(C)C)NC(=O)[C@H](CCCNC(=N)N)NC(=O)[C@@H](NC(=O)[C@H](Cc1ccc(O)cc1)NC(=O)[C@H](CC(N)=O)NC(=O)[C@H](CC(=O)O)NC(=O)[C@@H](NC(=O)[C@H](Cc1ccccc1)NC(=O)[C@@H](NC(=O)[C@H](C)NC(=O)[C@H](CC(=O)O)NC(=O)[C@H](CO)NC(=O)[C@@H](N)Cc1c[nH]cn1)C(C)C)[C@@H](C)O)[C@@H](C)O)C(=O)N[C@@H](C)C(=O)N[C@H](C(=O)N[C@@H](CCCCN)C(=O)N[C@@H](CCCCN)C(=O)N[C@@H](Cc1ccc(O)cc1)C(=O)N[C@@H](CC(C)C)C(=O)N[C@@H](CC(N)=O)C(=O)N[C@@H](CO)C(=O)N[C@H](C(=O)N[C@@H](CC(C)C)C(=O)N[C@H](C(N)=O)[C@@H](C)O)[C@@H](C)CC)C(C)C [(Nle^17, Thr^28)--VIP, (Nle^17, Thr^28)VIP] (HELM PEPTIDE1{H.S.D.A.V.F.T.D.N.Y.T.R.L.R.K.Q.[Nle].A.V.K.K.Y.L.N.S.I.L.T.[am]}$$$$V2.0)",9.3e-09,108
"CCCC[C@H](NC(=O)[C@H](CCC(N)=O)NC(=O)[C@H](CCCCN)NC(=O)[C@H](CCCNC(=N)N)NC(=O)[C@H](CC(C)C)NC(=O)[C@H](CCCNC(=N)N)NC(=O)[C@@H](NC(=O)[C@H](Cc1ccc(O)cc1)NC(=O)[C@H](C)NC(=O)[C@H](CC(=O)O)NC(=O)[C@@H](NC(=O)[C@H](Cc1ccccc1)NC(=O)[C@@H](NC(=O)[C@H](C)NC(=O)[C@H](CC(=O)O)NC(=O)[C@H](CO)NC(=O)[C@@H](N)Cc1c[nH]cn1)C(C)C)[C@@H](C)O)[C@@H](C)O)C(=O)N[C@@H](C)C(=O)N[C@H](C(=O)N[C@@H](CCCCN)C(=O)N[C@@H](CCCCN)C(=O)N[C@@H](Cc1ccc(O)cc1)C(=O)N[C@@H](CC(C)C)C(=O)N[C@@H](CC(N)=O)C(=O)N[C@@H](CO)C(=O)N[C@H](C(=O)N[C@@H](CC(C)C)C(=O)N[C@@H](CC(N)=O)C(N)=O)[C@@H](C)CC)C(C)C [(Ala^9, Nle^17)--VIP, (Ala^9, Nle^17)VIP] (HELM PEPTIDE1{H.S.D.A.V.F.T.D.A.Y.T.R.L.R.K.Q.[Nle].A.V.K.K.Y.L.N.S.I.L.N.[am]}$$$$V2.0)",1e-08,100

# Further compounds by falling EC50, results first:
EC50 [M],Structure (SMILES),Relative Potency [%]
1.5e-08,"CCCC[C@H](NC(=O)[C@H](CCC(N)=O)NC(=O)[C@H](CCCCN)NC(=O)[C@H](CCCNC(=N)N)NC(=O)[C@H](CC(C)C)NC(=O)[C@H](CCCCN)NC(=O)[C@@H](NC(=O)[C@H](Cc1ccc(O)cc1)NC(=O)[C@H](CC(N)=O)NC(=O)[C@H](CC(=O)O)NC(=O)[C@@H](NC(=O)[C@H](Cc1ccccc1)NC(=O)[C@@H](NC(=O)[C@H](C)NC(=O)[C@H](CC(=O)O)NC(=O)[C@H](CO)NC(=O)[C@H](Cc1c[nH]cn1)NC(C)=O)C(C)C)[C@@H](C)O)[C@@H](C)O)C(=O)N[C@@H](C)C(=O)N[C@H](C(=O)N[C@@H](CCCCN)C(=O)N[C@@H](CCCCN)C(=O)N[C@@H](Cc1ccc(O)cc1)C(=O)N[C@@H](CC(C)C)C(=O)N[C@@H](CC(N)=O)C(=O)N[C@@H](CO)C(=O)N[C@H](C(=O)N[C@@H](CC(C)C)C(=O)N[C@@H](CC(N)=O)C(N)=O)[C@@H](C)CC)C(C)C [Ac--(Lys^12, Nle^17)--VIP, Ac-(Lys^12, Nle^17)VIP] (HELM PEPTIDE1{[ac].H.S.D.A.V.F.T.D.N.Y.T.K.L.R.K.Q.[Nle].A.V.K.K.Y.L.N.S.I.L.N.[am]}$$$$V2.0)",67
3.5e-09,"CCCC[C@H](NC(=O)[C@H](CCC(N)=O)NC(=O)[C@H](CCCCN)NC(=O)[C@H](CCCNC(=N)N)NC(=O)[C@H](CC(C)C)NC(=O)[C@H](CCCCN)NC(=O)[C@@H](NC(=O)[C@H](Cc1ccc(O)cc1)NC(=O)[C@H](CC(N)=O)NC(=O)[C@H](CC(=O)O)NC(=O)[C@@H](NC(=O)[C@H](Cc1ccccc1)NC(=O)[C@@H](NC(=O)[C@H](C)NC(=O)[C@H](CC(=O)O)NC(=O)[C@H](CO)NC(=O)[C@@H](N)Cc1c[nH]cn1)C(C)C)[C@@H](C)O)[C@@H](C)O)C(=O)N[C@@H](C)C(=O)N[C@H](C(=O)N[C@@H](CCCCN)C(=O)N[C@@H](CCCCN)C(=O)N[C@@H](Cc1ccc(O)cc1)C(=O)N[C@@H](CC(C)C)C(=O)N[C@@H](CC(N)=O)C(=O)N[C@@H](CO)C(=O)N[C@H](C(=O)N[C@@H](CC(C)C)C(=O)N[C@H](C(N)=O)[C@@H](C)O)C(C)C)C(C)C [(Lys^12, Nle^17, Val^26, Thr^28)--VIP, (Lys^12, Nle^17, Val^26, Thr^28)VIP] (HELM PEPTIDE1{H.S.D.A.V.F.T.D.N.Y.T.K.L.R.K.Q.[Nle].A.V.K.K.Y.L.N.S.V.L.T.[am]}$$$$V2.0)",286
